This experiment addresses Glutathione S-transferase 2 (Onchocerca volvulus). In words: The compound was tested for it's inhibitory activity against Onchocerca volvulus Glutathione S-transferase 2.

This note sets out measurements from BindingDB's records for doi:10.1016/s0960-894x(00)00142-6 (University of Wales, 2000).

The term IC50 denotes the concentration that inhibits the measured activity by half. A higher IC50 goes with weaker potency.

For the compound `NC(CCC(=O)NC(CSC1CCCC(=O)C1)C(=O)NCC(=O)O)C(=O)O` (centres undefined) [2-Amino-4-[1-(carboxymethyl-carbamoyl)-2-(3-oxo-cyclohexylsulfanyl)-ethylcarbamoyl]-butyric acid], half-maximal inhibition (IC50) was put at 220 µM.

`CC(C)C(=O)CC(SCC(NC(=O)CCC(N)C(=O)O)C(=O)NCC(=O)O)c1ccccc1` (centres undefined) [2-Amino-4-[1-(carboxymethyl-carbamoyl)-2-(4-methyl-3-oxo-1-phenyl-pentylsulfanyl)-ethylcarbamoyl]-butyric acid] displayed an IC50 of 31.9 µM.

As for `N[C@@H](CCC(=O)N[C@@H](CS[C@H](CC(=O)O)C(=O)O)C(=O)NCC(=O)O)C(=O)O` [2-[2-(4-Amino-4-carboxy-butyrylamino)-2-(carboxymethyl-carbamoyl)-ethylsulfanyl]-succinic acid], the IC50 came to 19.1 µM.

With `CCCCOC(=O)CC(SCC(NC(=O)CCC(N)C(=O)O)C(=O)NCC(=O)O)C(=O)O` (centres undefined) [2-[2-(4-Amino-4-carboxy-butyrylamino)-2-(carboxymethyl-carbamoyl)-ethylsulfanyl]-succinic acid 4-butyl ester], the IC50 was found to be 48 µM.
